Measured values published in patent publication US12221406B2, “Compounds as NLRP3 inflammasome inhibitors and compositions and uses thereof” (VIRGINIA COMMONWEALTH UNIVERSITY, priority 2019, dated 2025).

Tests used:
EAE = EAE development in MOG-immunized mice; assay type: in vivo, C57BL/6 mice; conditions: from disease onset, to day 35
Text: C57BL/6 mice (n=10) were immunized subcutaneously in the dorsal flanks with MOG35-55 peptide emulsified in CFA on day 0. […] To assess the therapeutic effect in clinically relevant setting, treatment was started on disease onset (reduced tail tone, clinical score=1). Control mice received DMSO.

AIM2 inflammasome = biological target: T1, AIM2 inflammasome (Mus musculus, UniProt Q91VJ1); experiment: AIM2 inflammasome assay in J774A.1 cells (LPS/Poly(dA:dT), IL-1β ELISA); assay type: cell-based, murine; conditions: compound 10 μM
T1 construct: endogenous in cells; host or cells: J774A.1 murine macrophage cell line (LPS + Poly(dA:dT))
T1 sequence (Q91VJ1 1-354): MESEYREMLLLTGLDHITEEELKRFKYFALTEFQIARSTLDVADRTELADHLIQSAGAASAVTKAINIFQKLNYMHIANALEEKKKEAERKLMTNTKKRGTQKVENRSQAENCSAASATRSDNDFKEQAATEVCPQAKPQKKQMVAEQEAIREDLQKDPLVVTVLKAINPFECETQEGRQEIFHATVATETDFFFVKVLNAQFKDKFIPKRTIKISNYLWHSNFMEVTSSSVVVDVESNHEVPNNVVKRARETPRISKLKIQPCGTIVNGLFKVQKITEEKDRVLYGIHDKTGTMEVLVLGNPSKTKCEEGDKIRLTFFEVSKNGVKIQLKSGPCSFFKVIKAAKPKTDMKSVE
Experimental: (§1) J774A.1 cells were plated into a 96-well plate. […] Cells were treated with LPS (1 μg/mL) and test compounds for 1 h. Flagellin or poly-deoxyadenylic-deoxythymidylic acid sodium salt (Poly(dA:dT)) was used to induce the formation of the NLRC4 and the AIM2 inflammasomes.

NLRP3 inflammasome = NLRP3 inflammasome (Mus musculus, UniProt Q8R4B8); experiment: IL-1β release from mouse peritoneal macrophages upon LPS/ATP challenge (ELISA); assay type: cell-based; set-up: endogenous in cells; host or cells: thioglycolate-elicited peritoneal macrophages from C57BL/6 mice
Chain of NLRP3 inflammasome (Q8R4B8 whole entry): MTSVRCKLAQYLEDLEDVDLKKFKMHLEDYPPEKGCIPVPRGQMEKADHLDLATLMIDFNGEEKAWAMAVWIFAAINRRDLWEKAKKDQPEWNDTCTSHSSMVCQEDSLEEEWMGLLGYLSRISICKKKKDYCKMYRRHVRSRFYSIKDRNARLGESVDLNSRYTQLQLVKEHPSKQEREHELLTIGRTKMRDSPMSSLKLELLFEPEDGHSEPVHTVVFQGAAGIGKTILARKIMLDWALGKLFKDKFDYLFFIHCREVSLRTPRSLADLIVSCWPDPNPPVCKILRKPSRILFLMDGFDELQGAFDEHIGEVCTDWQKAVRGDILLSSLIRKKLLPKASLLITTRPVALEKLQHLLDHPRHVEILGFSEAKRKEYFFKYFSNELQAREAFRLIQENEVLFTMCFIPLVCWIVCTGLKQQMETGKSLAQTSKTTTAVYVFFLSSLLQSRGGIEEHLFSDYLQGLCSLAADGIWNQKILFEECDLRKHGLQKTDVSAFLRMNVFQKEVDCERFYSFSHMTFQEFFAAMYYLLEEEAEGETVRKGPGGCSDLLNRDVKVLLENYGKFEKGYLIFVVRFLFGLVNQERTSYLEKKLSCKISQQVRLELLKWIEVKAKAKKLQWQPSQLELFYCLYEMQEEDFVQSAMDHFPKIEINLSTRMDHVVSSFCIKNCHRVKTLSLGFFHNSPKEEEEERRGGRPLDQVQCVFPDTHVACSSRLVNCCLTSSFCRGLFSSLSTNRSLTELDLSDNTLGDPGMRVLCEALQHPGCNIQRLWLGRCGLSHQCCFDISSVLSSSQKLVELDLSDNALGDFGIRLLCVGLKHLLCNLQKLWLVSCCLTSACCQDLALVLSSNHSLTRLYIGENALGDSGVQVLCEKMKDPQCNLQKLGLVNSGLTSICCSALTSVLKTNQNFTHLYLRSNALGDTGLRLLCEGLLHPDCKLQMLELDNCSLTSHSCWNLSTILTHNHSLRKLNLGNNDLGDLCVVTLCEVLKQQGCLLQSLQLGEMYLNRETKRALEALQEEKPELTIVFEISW
Experimental: Next, test compounds were added for 30 min. […] Primary peritoneal macrophages were similarly treated as described with J774A.1 cell line followed by ELISA analysis for IL-β production.
C57BL/6 mice were injected with 1 mL of 3% thioglycolate into the peritoneal cavity. Peritoneal cells were collected 3 days after injection by flushing the peritoneal cavity with cold PBS. The peritoneal cells were plated in complete RPMI1640 media containing 10% FBS, 100 U/mL penicillin, 100 μg/mL streptomycin. Floating cells were removed after 2 h and adherent peritoneal macrophages were used for experiments as described above.

NLRC4 inflammasome = biological target: T2, NLRC4 inflammasome (Mus musculus, UniProt Q3UP24); experiment: NLRC4 inflammasome assay in J774A.1 cells (LPS/flagellin, IL-1β ELISA); assay type: cell-based, murine; conditions: compound 10 μM
T2 construct: endogenous in cells; host or cells: J774A.1 murine macrophage cell line (LPS + transfected flagellin)
Experimental: as §1

[1] = In vivo BBB penetration in mice, plasma and brain by LC-MS/MS; set-up: species or system C57BL/6 mice; conditions: PO 20 mg/kg
Experimental: (§2) […]. […] […]. Plasma samples ([…]) were collected at 0.08, 0.17, 0.25, 0.5, 0.75, 1.0, 2.0, 4.0, 8.0, 12.0, and 24.0 h time points through orbital vein and were stored in −80° C. freezer for later analysis.
(§3) Samples were mixed by vortexing for 30 seconds. […] […]. […] […].

[2] = PK study in rats, IV and PO, plasma by LC-MS/MS; assay type: in vivo, Sprague-Dawley rats
Experimental: as §2, §3

hCMEC/D3 cells = experiment: Cytotoxicity on hCMEC/D3 cells (Live/Dead kit); assay type: cell-based, human; conditions: 20 μM, 2 h

Row | Compound | EAE induction (clinical score) (EAE; 2 mg/kg i.p.) | EAE induction (clinical score) (EAE; 10 mg/kg i.p.) | effect on IL-1β production by AIM2 inflammasome (AIM2 inflammasome) | inhibitory activity in mouse peritoneal macrophages (NLRP3 inflammasome) | effect on IL-1β production by NLRC4 inflammasome (NLRC4 inflammasome) | plasma concentration ([1]; 0.5 hours) [ng/mL] | brain concentration after approximate conversion ([1]; 4 h) | oral bioavailability (Foral) ([2]; 20 mg/kg PO vs IV) [%] | steady-state volume of distribution (Vdss) ([2]; IV 20 mg/kg) [L/kg] | terminal plasma half-life (t½) ([2]; IV 20 mg/kg) [h] | total clearance (CLtot) ([2]; IV 20 mg/kg) [mL/min/kg] | cmax ([2]; PO 20 mg/kg) [ng/mL] | tmax ([2]; PO 20 mg/kg) [h] | cytotoxicity on hCMEC/D3 cells (hCMEC/D3 cells)
1 | C#CCNS(=O)(=O)c1ccc(CCN(Cc2cc(Cl)ccc2OC)C(=O)C=C)cc1 [HL16, N-(5-chloro-2-methoxybenzyl)-N-(4-(N-(prop-2-yn-1-yl)sulfamoyl)phenethyl)acryl-amide] | substantially blocked induction of EAE | substantially blocked induction of EAE | significantly inhibited | confirmed | significantly inhibited |  |  |  |  |  |  |  |  | 
2 | C#CCNS(=O)(=O)c1ccc(CCN(Cc2cc(Cl)ccc2OCCC)C(=O)Cc2ccsc2)cc1 [SZ-N3I-45, N-(5-chloro-2-propoxybenzyl)-N-(4-(N-(prop-2-yn-1-yl)sulfamoyl)phenethyl)-2-(thio-phen-3-yl)acetamide] |  |  | did not significantly interfere |  | did not significantly interfere | 277.33 ± 182.15 | around 12 nM | 10 | 8.5 | 6.6 | 41 | 73 | 12 | did not show significant toxic effects
